In patent US20210115040A1, “OGA INHIBITOR COMPOUNDS” (Janssen Pharmaceutica NV, priority 2018, published 2021):

Key:
[1] = molecular target: T1, recombinant human Meningioma Expressed Antigen 5 (MGEA5), also referred to as O-GlcNAcase (OGA) (Homo sapiens, UniProt O60502); assay: OGA biochemical assay (inhibition of FM-GlcNAc hydrolysis, fluorescence); details: FM-GlcNAc substrate; for IC50: 6 h at room temperature, read-out: Enzymatic hOGA, pIC50 (converted); for Emax: maximal effect, read-out: Enzymatic Emax (%)
T1 construct: Full length OGA enzyme was purchased at OriGene (cat #TP322411); purchased OriGene TP322411
T1 sequence (O60502 1-916): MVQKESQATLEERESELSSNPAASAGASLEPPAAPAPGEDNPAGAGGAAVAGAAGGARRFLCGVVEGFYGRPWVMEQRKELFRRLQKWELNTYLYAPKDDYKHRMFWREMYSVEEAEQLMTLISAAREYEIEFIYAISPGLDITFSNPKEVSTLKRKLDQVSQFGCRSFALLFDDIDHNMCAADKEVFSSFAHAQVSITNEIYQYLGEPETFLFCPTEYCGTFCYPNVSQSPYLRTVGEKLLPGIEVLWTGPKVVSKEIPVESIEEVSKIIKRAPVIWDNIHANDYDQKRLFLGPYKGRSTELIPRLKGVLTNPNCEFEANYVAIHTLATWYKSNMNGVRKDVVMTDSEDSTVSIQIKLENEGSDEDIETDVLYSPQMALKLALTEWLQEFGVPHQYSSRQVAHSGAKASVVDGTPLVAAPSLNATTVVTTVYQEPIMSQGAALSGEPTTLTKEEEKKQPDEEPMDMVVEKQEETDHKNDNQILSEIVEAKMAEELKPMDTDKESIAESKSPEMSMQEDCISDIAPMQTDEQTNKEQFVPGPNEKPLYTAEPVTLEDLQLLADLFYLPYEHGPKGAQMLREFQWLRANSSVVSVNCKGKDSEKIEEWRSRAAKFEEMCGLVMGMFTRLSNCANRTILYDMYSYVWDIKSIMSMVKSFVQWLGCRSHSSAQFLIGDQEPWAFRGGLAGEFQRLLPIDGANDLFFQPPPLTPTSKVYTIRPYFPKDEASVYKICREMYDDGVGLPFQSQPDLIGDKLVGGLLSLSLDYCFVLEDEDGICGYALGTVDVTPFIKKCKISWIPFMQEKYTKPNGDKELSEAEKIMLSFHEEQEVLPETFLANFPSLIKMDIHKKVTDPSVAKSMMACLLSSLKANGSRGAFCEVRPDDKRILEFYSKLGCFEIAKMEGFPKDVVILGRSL
Text: The assay is based on the inhibition of the hydrolysis of fluorescein mono-β-D-N-Acetyl-Glucosamine (FM-GlcNAc) (Mariappa et al. 2015, Biochem J 470:255) by the recombinant human Meningioma Expressed Antigen 5 (MGEA5), also referred to as O-GlcNAcase (OGA). The hydrolysis FM-GlcNAc (Marker Gene technologies, cat #M1485) results in the formation of β-D-N-glucosamineacetate and fluorescein. The fluorescence of the latter can be measured at excitation wavelength 485 nm and emission wavelength 538 nm. An increase in enzyme activity results in an increase in fluorescence signal. Full length OGA enzyme was purchased at OriGene (cat #TP322411). The enzyme was stored in 25 mM Tris.HCl, pH 7.3, 100 mM glycine, 10% glycerol at −20° C. Thiamet G and GlcNAcStatin were tested as reference compounds (Yuzwa et al. 2008 Nature Chemical Biology 4:483; Yuzwa et al. 2012 Nature Chemical Biology 8:393). The assay was performed in 200 mM Citrate/phosphate buffer supplemented with 0.005% Tween-20. 35.6 g Na2HPO4 2H2O (Sigma, #C0759) were dissolved in 1 L water to obtain a 200 mM solution. 19.2 g citric acid (Merck, #1.06580) was dissolved in 1 L water to obtain a 100 mM solution. pH of the sodiumphosphate solution was adjusted with the citric acid solution to 7.2. The buffer to stop the reaction consists of a 500 mM Carbonate buffer, pH 11.0. 734 mg FM-GlcNAc were dissolved in 5.48 mL DMSO to obtain a 250 mM solution and was stored at −20° C. OGA was used at a 2 nM concentration and FM-GlcNAc at a 100 uM final concentration. Dilutions were prepared in assay buffer.
50 nl of a compound dissolved in DMSO was dispensed on Black Proxiplate™ 384 Plus Assay plates (Perkin Elmer, #6008269) and 3 μl fl-OGA enzyme mix added subsequently. Plates were pre-incubated for 60 min at room temperature and then 2 μl FM-GlcNAc substrate mix added. […] Plates were briefly centrifuged for 1 min at 1000 rpm and incubate at room temperature for 6 h. To stop the reaction 5 μl STOP buffer were added and plates centrifuge again 1 min at 1000 rpm. Fluorescence was quantified in the Thermo Scientific Fluoroskan Ascent or the PerkinElmer EnVision with excitation wavelength 485 nm and emission wavelength 538 nm.
For analysis a best-fit curve is fitted by a minimum sum of squares method. From this an IC50 value and Hill coefficient was obtained. High control (no inhibitor) and low control (saturating concentrations of standard inhibitor) were used to define the minimum and maximum values.

OGA = molecular target: T2, OGA (Homo sapiens, UniProt O60502); assay: OGA cellular assay (ICC detection of O-GlcNAcylated proteins in HEK293 cells inducible for P301L mutant human Tau); type: cell-based; details: for Emax: maximum = Thiamet G 200 uM; for EC50: 6 hours incubation, read-out: Cellular hOGA, pEC50 (converted)
T2 construct: HEK293 cells inducible for P301L mutant human Tau (isoform 2N4R) were established at Janssen; endogenous in cells; host or cells: HEK293 cells inducible for P301L mutant human Tau (2N4R)
T2 sequence (O60502 1-916): T1 sequence (O60502 1-916)
Method: HEK293 cells inducible for P301L mutant human Tau (isoform 2N4R) were established at Janssen. Thiamet-G was used for both plate validation (high control) and as reference compound (reference EC50 assay validation). OGA inhibition is evaluated through the immunocytochemical (ICC) detection of O-GlcNAcylated proteins by the use of a monoclonal antibody (CTD110.6; Cell Signaling, #9875) detecting 0-GlcNAcylated residues as previously described (Dorfmueller et al. 2010 Chemistry & biology, 17:1250). Inhibition of OGA will result in an increase of O-GlcNAcylated protein levels resulting in an increased signal in the experiment. Cell nuclei are stained with Hoechst to give a cell culture quality control and a rough estimate of immediate compounds toxicity, if any. ICC pictures are imaged with a Perkin Elmer Opera Phenix plate microscope and quantified with the provided software Perkin Elmer Harmony 4.1.
Cells were propagated in DMEM high Glucose (Sigma, #D5796) following standard procedures. 2 days before the cell assay cells are split, counted and seeded in Poly-D-Lysine (PDL) coated 96-wells (Greiner, #655946) plate at a cell density of 12,000 cells per cm^2 (4,000 cells per well) in 100 μl of Assay Medium (Low Glucose medium is used to reduce basal levels of GlcNAcylation) (Park et al. 2014 The Journal of biological chemistry 289:13519). At the day of compound test medium from assay plates was removed and replenished with 90 μl of fresh Assay Medium. 10 μl of compounds at a 10fold final concentration were added to the wells. Plates were centrifuged shortly before incubation in the cell incubator for 6 hours. DMSO concentration was set to 0.2%. Medium is discarded by applying vacuum. For staining of cells medium was removed and cells washed once with 100 μl D-PBS (Sigma, #D8537). From next step onwards unless other stated assay volume was always 50 μl and incubation was performed without agitation and at room temperature. Cells were fixed in 50 μl of a 4% paraformaldehyde (PFA, Alpha aesar, #043368) PBS solution for 15 minutes at room temperature. […] Before analysis samples were washed 2 times manually for 5 minutes in ICC base buffer.
Imaging is performed using Perkin Elmer Phenix Opera using a water 20× objective and recording 9 fields per well. Intensity readout at 488 nm is used as a measure of O-GlcNAcylation level of total proteins in wells. To assess potential toxicity of compounds nuclei were counted using the Hoechst staining. IC50-values are calculated using parametric non-linear regression model fitting. As a maximum inhibition Thiamet G at a 200 uM concentration is present on each plate. In addition, a concentration response of Thiamet G is calculated on each plate.

[2] = HEK293, HEK293 cells inducible for P301L mutant human Tau
[3] = HEK293 cells inducible for P301L mutant human Tau

SMILES | IC50 [1] | Emax [1] | Emax (OGA; [2]) | EC50 (OGA; [3]) | Emax (OGA; [3])
Cc1cc(C[C@H]2CCCN(C(C)c3cnc4c(c3)nc(C)n4C)C2)cc(C)n1 (mixture of isomers) [Compound 11] | 31.6 nM | 100% | 64% | 631 nM | –
Cc1cc(OC[C@@H]2CCN(C(C)c3ccc4sc(C)nc4n3)C2)cc(C)n1 (mixture of isomers) [Compound 47] | 398 nM | 99% | 11% | > 1000 nM | –
Cc1cc(OC[C@H]2CCN(C(C)c3ccc4sc(C)nc4n3)C2)cc(C)n1 (mixture of isomers) [Compound 48] | 794 nM | 93% | 16% | > 1000 nM | –
Cc1cc(C[C@H]2CCCN(C(C)c3ccc4nc(C)sc4c3)C2)cc(C)n1 (mixture of isomers) [Compound 51] | 501 nM | 99% | – | > 1000 nM | –
Cc1cc(C[C@H]2CCCN(Cc3ccc4sc(C)nc4n3)C2)cc(C)n1 (mixture of isomers) [Compound 52] | 63.1 nM | 103% | 70% | 501 nM | –
COc1cc(OC[C@H]2CCCN(C(C)c3ccc4sc(C)nc4n3)C2)cc(C)n1 (mixture of isomers) [Compound 54] | 10 nM | 100% | 67% | 158 nM | –
Cc1cc(CO[C@H]2CCCN(C(C)c3cc4nc(C)sc4cc3F)C2)cc(C)n1 (mixture of isomers) [Compound 99] | 3.16 nM | 99% | 66% | 63.1 nM | –
Cc1cc(C[C@H]2CCCN(C(C)c3ccc4nc(C)[nH]c4n3)C2)cc(C)n1 (mixture of isomers) [Compound 8] | 100 nM | 99% | 23% | > 1000 nM | –
Cc1cc(C[C@H]2CCCN(C(C)c3ccc4cn(C)nc4n3)C2)cc(C)n1 (mixture of isomers) [Compound 12ab] | 25.1 nM | 100% | 71% | 251 nM | –
Cc1cc(C[C@H]2CCCN(C(C)c3ccc4cn(C)nc4c3)C2)cc(C)n1 (mixture of isomers) [Compound 16] | 126 nM | 97% | – | > 1000 nM | 14%
COc1cc([C@H]2CCCN([C@@H](C)c3cnc4[nH]c(C)nc4c3)C2)cc(C(F)(F)F)n1 [Compound 4b] | 501 nM | 96% | – | – | –
Cc1cc(OC2CCCN(C(C)c3ccc4[nH]c(C)nc4n3)C2)cc(C(F)(F)F)n1 (centres unmarked) [Compound 5] | 794 nM | 94% | – | – | –
Cc1cc(C[C@H]2CCCN(Cc3ccc4[nH]c(C)nc4c3)C2)cc(C)n1 [Compound 10] | 1000 nM | 89% | – | – | –
Cc1cc(C[C@H]2CCCN(Cc3ccc4cn(C)nc4c3)C2)cc(C)n1 [Compound 17] | 794 nM | 90% | – | – | –
COc1cc(O[C@@H]2CCN([C@@H](C)c3ccc4oc(C)nc4n3)C2)cc(C)n1 [Compound 21a] | > 10000 nM | 22% | – | – | –
Cc1cc(C[C@H]2CCCN([C@@H](C)c3ccc4oc(C)nc4n3)C2)cc(C(F)(F)F)n1 [Compound 24b] | 5010 nM | 69% | – | – | –
Cc1cc(C[C@H]2CCN([C@@H](C)c3ccc4oc(C)nc4n3)C2)cc(C)n1 [Compound 27a] | 200 nM | 99% | – | – | –
Cc1cc(C[C@H]2CCN([C@H](C)c3ccc4oc(C)nc4n3)C2)cc(C)n1 [Compound 27b] | > 10000 nM | 47% | – | – | –
Cc1cc(C[C@H]2CCCN(Cc3ccc4oc(C)nc4n3)C2)cc(C)n1 [Compound 36] | 63.1 nM | 101% | – | – | –
COc1cc(OC2CCCN(C(C)c3ccc4sc(C)nc4n3)C2)cc(C)n1 (centres unmarked) [Compound 41] | 126 nM | 101% | – | – | –
Cc1cc(OC[C@@H]2CCCN([C@H](C)c3ccc4sc(C)nc4n3)C2)cc(C)n1 [Compound 45a] | 501 nM | 95% | – | – | –
Cc1cc(OC[C@H]2CCCN([C@@H](C)c3ccc4sc(C)nc4n3)C2)cc(C)n1 [Compound 46a] | 631 nM | 96% | – | – | –
Cc1cc(C[C@H]2CCCN(Cc3ccc4nc(C)sc4c3)C2)cc(C)n1 [Compound 53] | 3980 nM | 77% | – | – | –
Cc1cc(C[C@H]2CCN(Cc3ccc4nc(C)sc4c3)C2)cc(C)n1 [Compound 55] | > 10000 nM | 18% | – | – | –
Cc1cc(C[C@H]2CCN(C(C)c3ccc4nc(C)sc4c3)C2)cc(C)n1 (some centres unmarked) [Compound 56] | > 10000 nM | 41% | – | – | –
Cc1nc2nc(C(C)N3CC[C@H](Cc4cc(F)cc(F)n4)C3)ccc2o1 (some centres unmarked) [Compound 79] | 158 nM | 99% | – | – | –
